According to ChEMBL document CHEMBL1201862, “PubChem BioAssay data set” (2004):
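Growth conditions: 96-well plates. Treatment: test compound, 48 hours, 5 concentrations. Analysis: linear interpolation between bracketing concentrations; unreached endpoints set to highest concentration. GI50 marks 50% less growth.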 Activity calls are given as the source filed them. Cut-off read from the data, not from the text of the source: active = GI50 up to about 1.1 µM and inactive = higher.

Assays:
Assay in all cases: inhibition of tumour cell growth, NCI panel, 48 h
ACHN = tested on: ACHN
COLO 205 = tested on: COLO 205
KM12 = tested on: KM12
CAKI-1 = tested on: CAKI-1
OVCAR-4 = tested on: OVCAR-4
SNB-75 = tested on: SNB-75
SF-539 = tested on: SF-539
HL-60 = tested on: HL-60
UACC-257 = tested on: UACC-257
RXF 393 = tested on: RXF 393
NCI-H226 = tested on: NCI-H226
MOLT-4 = tested on: MOLT-4
OVCAR-3 = tested on: OVCAR-3
SK-MEL-5 = tested on: SK-MEL-5
NCI-H460 = tested on: NCI-H460
UO-31 = tested on: UO-31
SK-MEL-28 = tested on: SK-MEL-28
SNB-19 = tested on: SNB-19
MDA-MB-435 = tested on: MDA-MB-435

Measured: GI50

Cc1cc(O)nc(NNC(C#N)c2ccc([N+](=O)[O-])cc2)n1 (stereo not given)
inactive: ACHN 74.8 µM | COLO 205 > 100 µM | KM12 84.9 µM | CAKI-1 33.4 µM | OVCAR-4 > 100 µM | SNB-75 34.8 µM | SF-539 > 100 µM | HL-60 63.4 µM | UACC-257 > 100 µM | RXF 393 93.8 µM | NCI-H226 > 100 µM | MOLT-4 > 100 µM | OVCAR-3 > 100 µM | SK-MEL-5 > 100 µM | NCI-H460 > 100 µM | UO-31 47.5 µM | SK-MEL-28 > 100 µM

C=Cc1cncc(C#N)c1CCc1c(C#N)cncc1C=C
inactive: ACHN > 10 µM | COLO 205 > 10 µM | KM12 > 10 µM | CAKI-1 63.2 µM | OVCAR-4 > 10 µM | SNB-75 > 10 µM | SF-539 > 10 µM | HL-60 > 10 µM | UACC-257 > 10 µM | RXF 393 56.5 µM | NCI-H226 > 10 µM | MOLT-4 > 10 µM | OVCAR-3 > 10 µM | SK-MEL-5 > 10 µM | NCI-H460 > 10 µM | UO-31 > 10 µM | SK-MEL-28 > 10 µM | SNB-19 > 10 µM

CC(C)NC(=O)O/N=C1\CCC2[C@@H]3CC=C4C[C@@H](OC(=O)NC(C)C)CC[C@]4(C)C3CC[C@]12C (stereo not given in full)
active: ACHN 0.971 µM | COLO 205 0.359 µM | HL-60 0.632 µM | UACC-257 0.685 µM | OVCAR-3 1.08 µM | SK-MEL-5 0.425 µM | UO-31 1.01 µM
inactive: KM12 1.68 µM | CAKI-1 1.44 µM | OVCAR-4 1.38 µM | SNB-75 1.87 µM | SF-539 2.4 µM | RXF 393 1.53 µM | NCI-H226 18.1 µM | MOLT-4 1.42 µM | NCI-H460 1.38 µM | SK-MEL-28 1.59 µM | SNB-19 2.02 µM

CN(C)C1(C#N)CCC2(CC1)OCCO2
inactive: ACHN > 100 µM | COLO 205 > 100 µM | KM12 > 100 µM | CAKI-1 > 100 µM | OVCAR-4 > 100 µM | SNB-75 > 100 µM | SF-539 > 100 µM | HL-60 > 100 µM | UACC-257 > 100 µM | RXF 393 > 100 µM | NCI-H226 > 100 µM | MOLT-4 > 100 µM | OVCAR-3 > 100 µM | SK-MEL-5 > 100 µM | NCI-H460 > 100 µM | UO-31 > 100 µM | SK-MEL-28 > 100 µM | SNB-19 > 100 µM

C=Cc1ccc(C)[n+](C[Si](C)(C)O[Si](C)(C)C[n+]2cc(C=C)ccc2C)c1
inactive: ACHN > 100 µM | COLO 205 > 100 µM | KM12 > 100 µM | CAKI-1 > 100 µM | OVCAR-4 > 100 µM | SNB-75 > 100 µM | SF-539 > 100 µM | HL-60 > 100 µM | UACC-257 > 100 µM | RXF 393 > 100 µM | NCI-H226 > 100 µM | MOLT-4 > 100 µM | OVCAR-3 > 100 µM | SK-MEL-5 > 100 µM | NCI-H460 > 100 µM | UO-31 > 100 µM | SK-MEL-28 > 100 µM | SNB-19 > 100 µM

Cc1c(C(=O)Nc2ccc(Cl)cc2)nc(N)nc1-c1cccc(Cl)c1
inactive: ACHN > 100 µM | COLO 205 77.3 µM | KM12 46.6 µM | CAKI-1 68.7 µM | OVCAR-4 > 100 µM | SF-539 > 100 µM | HL-60 39.2 µM | UACC-257 > 100 µM | RXF 393 39.5 µM | NCI-H226 > 100 µM | MOLT-4 > 100 µM | OVCAR-3 > 100 µM | SK-MEL-5 > 100 µM | NCI-H460 66.2 µM | UO-31 > 100 µM | SK-MEL-28 > 100 µM | SNB-19 > 100 µM

C=CCCCCCCCCC(=O)ON(Cc1ccc(O)c(OC)c1)C(=O)C(F)(F)F
inactive: ACHN > 100 µM | COLO 205 > 100 µM | KM12 52.5 µM | OVCAR-4 > 100 µM | SNB-75 > 100 µM | SF-539 > 100 µM | HL-60 12.4 µM | UACC-257 > 100 µM | MDA-MB-435 > 100 µM | RXF 393 > 100 µM | NCI-H226 21.4 µM | MOLT-4 31.3 µM | SK-MEL-5 > 100 µM | NCI-H460 > 100 µM | UO-31 10.9 µM | SK-MEL-28 > 100 µM | SNB-19 > 100 µM

COC1=CC(=O)C2C(C1=O)[C@@H]1c3ccccc3OC[C@H]21 (stereo not given in full)
inactive: ACHN > 100 µM | COLO 205 > 100 µM | KM12 > 100 µM | CAKI-1 > 100 µM | OVCAR-4 > 100 µM | SNB-75 > 100 µM | SF-539 > 100 µM | HL-60 > 100 µM | RXF 393 > 100 µM | NCI-H226 > 100 µM | MOLT-4 > 100 µM | OVCAR-3 > 100 µM | SK-MEL-5 > 100 µM | NCI-H460 > 100 µM | UO-31 > 100 µM | SK-MEL-28 > 100 µM | SNB-19 > 100 µM
